From PubChem BioAssay (NCI)
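In this assay, cells in 96-well plates receive the compound at five concentrations for 48 hours. Endpoints are linearly interpolated between the surrounding concentrations. TGI: total growth inhibition.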

Key:
Test in all cases: NCI tumour cell line growth inhibition, 48 h
MDA-N = system: MDA-N
HCT-116 colon = system: HCT-116 colon
IGROV1 ovarian = system: IGROV1 ovarian
T-47D breast = system: T-47D breast
HOP-62 NSCLC = system: HOP-62 NSCLC
A498 renal = system: A498 renal
SK-MEL-5 melanoma = system: SK-MEL-5 melanoma
TK-10 renal = system: TK-10 renal
SK-OV-3 ovarian = system: SK-OV-3 ovarian
RPMI-8226 leukemia = system: RPMI-8226 leukemia
NCI-H23 lung = system: NCI-H23 lung

Row | SMILES | TGI (MDA-N) [µM] | TGI (HCT-116 colon) [µM] | TGI (IGROV1 ovarian) [µM] | TGI (T-47D breast) [µM] | TGI (HOP-62 NSCLC) [µM] | TGI (A498 renal) [µM] | TGI (SK-MEL-5 melanoma) [µM] | TGI (TK-10 renal) [µM] | TGI (SK-OV-3 ovarian) [µM] | TGI (RPMI-8226 leukemia) [µM] | TGI (NCI-H23 lung) [µM]
1 | COC(=O)C1CCC(=O)N1CN(C(C)=O)c1ccccc1Cl (centres undefined) | > 100 | > 100 | > 100 | > 100 | > 100 | > 100 | > 100 | > 100 | > 100 | > 100 | > 100
2 | CC1=CC(=O)CC(C)(C)C1/C=C/C(C)=C/C=C/C(C)=C/C=C/C=C(C)/C=C/C=C(C)/C=C/C1C(C)=CC(=O)CC1(C)C (centres undefined) | > 100 | 55.1 | > 100 | > 100 | > 100 | > 100 | > 100 | > 100 | > 100 | > 100 | > 100
3 | O=c1c2cc(I)ccc2nc(SCc2nncs2)n1Cc1ccccc1 | > 100 | > 100 | 48.7 | > 100 | > 100 | 65.1 | 88.3 | > 100 | > 100 | > 100 | > 100
4 | CC[C@H](C)[C@H]1NC(=O)[C@@H](NC(=O)[C@@H](CC(C)C)N(C)C(=O)C2CCCN2C(=O)[C@H](C)O)[C@@H](C)OC(=O)[C@H](Cc2ccc(OC)cc2)N(C)C(=O)[C@@H]2CCCN2C(=O)[C@H](CCCCNC(=O)OCc2ccccc2)NC(=O)[C@H](C)C(=O)[C@H](C(C)C)OC(=O)C[C@@H]1O (some centres undefined) | > 25 | 20.2 | > 25 | > 25 | > 25 | > 25 | > 25 | > 25 | > 25 | 19.7 | > 25
5 | O=C1NC(=O)C(F)(n2cc(F)c(=O)[nH]c2=O)C(O)N1 (centres undefined) | > 10 | > 10 | > 10 | > 10 | > 10 | > 10 | > 10 | > 10 | > 10 | > 10 | > 10
6 | CN(C)CCCN1C(=S)N(CCCN(C)C)c2c3ccccc3nc3c([N+](=O)[O-])ccc1c23 | 21.4 | 16 | 16.9 | 31.6 | 47 | 22.9 | 18.8 | 24.2 | 50.8 | 50.6 | 23.7
7 | O=C(O)CCCC(=O)Nn1c(Cc2ccc(Cl)cc2)n[nH]c1=O | > 100 | > 100 | > 100 | > 100 | > 100 | > 100 | > 100 | > 100 | > 100 | > 100 | > 100
8 | CC(C)OC(=O)c1ccc(CCC2=CC(=O)C=CC2=O)cc1 | 22.6 | 27 | 27.5 | 4.45 | 47.4 | 45.3 | 30 | 22.4 | > 88.6 | 24.2 | 31.3
9 | COC(=O)/C=C1\C(=O)N(C(C)=O)c2ccc(Br)cc21 | 24 | 19.8 | 20.7 | 15.1 | 25.9 | 51.6 | 23 | 14.6 | 29.1 | 6.95 | 32.4
